Measured values from paper PMC6001238, “Iterative Chemical Engineering of Vancomycin Leads to Novel Vancomycin Analogs With a High in Vitro Therapeutic Index” (Frontiers in Microbiology, 2018).
Values after ≈ are worked out from the molar mass of the structure shown. Read-outs that look alike come from different tables or passages of the source.

How the values were obtained:
[1] = test system: VE 157 (VanB); experiment: MIC, VanB-type VRE strain VE 157; assay type: cell-based, Enterococcus; settings: VE 157, VanB; read-out: MIC
Outline: (§1)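 Susceptibility was scored by broth microdilution (CLSI). In one instance each vancomycin analog or control antibiotic was tested in the presence of vancomycin, 10 μM final, and ultrapure water plus non-inoculated broth were included as controls.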

[2] = test system: 33 clinical VRE isolates; experiment: MIC against a set of 33 clinical VRE isolates (range, MIC50, TI); assay type: cell-based, Enterococcus faecalis
Outline: as §1

[3] = test system: VE 82 (VanC1); experiment: MIC, VanC1-type VRE strain VE 82; assay type: cell-based, Enterococcus gallinarum; settings: VE 82, VanC1; read-out: MIC
Outline: as §1

[4] = test system: E. faecalis VSE 1; experiment: MIC, broth microdilution, vancomycin-sensitive E. faecalis (VSE 1); assay type: cell-based, Enterococcus faecalis
Outline: as §1

[5] = test system: VE 149 (VanB); experiment: MIC, VanB-type VRE strain VE 149; assay type: cell-based, Enterococcus; settings: VE 149, VanB; read-out: MIC
Outline: as §1

[6] = test system: MRSA KS2; experiment: MIC, broth microdilution, MRSA KS2; assay type: cell-based, Staphylococcus aureus
Outline: as §1

[7] = test system: MRSA KS1; experiment: MIC, broth microdilution, MRSA KS1; assay type: cell-based, Staphylococcus aureus
Outline: as §1

[8] = test system: VE 150 (VanB); experiment: MIC, VanB-type VRE strain VE 150; assay type: cell-based, Enterococcus; settings: VE 150, VanB; read-out: MIC
Outline: as §1

[9] = test system: S. aureus VISA/HIP5827; experiment: MIC, broth microdilution, vancomycin-intermediate S. aureus VISA HIP5827; assay type: cell-based, Staphylococcus aureus
Outline: as §1

[10] = test system: VE 148 (VanB); experiment: MIC, VanB-type VRE strain VE 148; assay type: cell-based, Enterococcus; settings: VE 148, VanB; read-out: MIC
Outline: as §1

[11] = test system: L1210, CEM and HeLa cell lines; experiment: Cytostatic activity, average or summary over L1210, CEM and HeLa; assay type: cell-based
Outline: (§2)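 Suspensions (300,000–500,000 cells/mL) combined with equal volumes of diluted compound; 37°C; L1210 2 d / CEM 3 d / HeLa 4 d; counted by Coulter counter; IC50 vs untreated wells.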

[12] = test system: MRSA KS6; experiment: MIC, broth microdilution, MRSA KS6; assay type: cell-based, Staphylococcus aureus
Outline: as §1

[13] = test system: E. faecalis VRE 29; experiment: MIC, broth microdilution, vancomycin-resistant E. faecalis VRE 29 (VanA); assay type: cell-based, Enterococcus faecalis
Outline: as §1

[14] = test system: 24 clinical MRSA isolates; experiment: MIC against a set of 24 clinical MRSA isolates (range, MIC50, TI); assay type: cell-based, Staphylococcus aureus
Outline: as §1

[15] = test system: E. faecalis VRE 37; experiment: MIC, broth microdilution, vancomycin-resistant E. faecalis VRE 37 (VanA); assay type: cell-based, Enterococcus faecalis
Outline: as §1

[16] = test system: human T-lymphocyte (CEM) cells; experiment: Cytostatic activity, CEM cell proliferation; assay type: cell-based; settings: mean ± SD of three experiments; highest concentration tested 250 µM; 3 days; read-out: Toxicity (IC50) CEM
Outline: as §2

[17] = test system: VE 152 (VanB); experiment: MIC, VanB-type VRE strain VE 152; assay type: cell-based, Enterococcus; settings: VE 152, VanB; read-out: MIC
Outline: as §1

[18] = test system: S. aureus VSSA (ATCC 6538); experiment: MIC, broth microdilution, vancomycin-sensitive S. aureus (VSSA/MSSA, ATCC 6538); assay type: cell-based, Staphylococcus aureus
Outline: as §1

[19] = test system: S. aureus VRSA; experiment: MIC, broth microdilution, vancomycin-resistant S. aureus (VRSA); assay type: cell-based, Staphylococcus aureus
Outline: as §1

[20] = test system: E. faecalis VRE 53; experiment: MIC, broth microdilution, vancomycin-resistant E. faecalis VRE 53 (VanA); assay type: cell-based, Enterococcus faecalis
Outline: as §1

[21] = test system: human cervix carcinoma (HeLa) cells; experiment: Cytostatic activity, HeLa cell proliferation; assay type: cell-based; settings: mean ± SD of three experiments; highest concentration tested 250 µM; 4 days; read-out: Toxicity (IC50) HeLa
Outline: as §2

[22] = test system: MRSA KS89; experiment: MIC, broth microdilution, MRSA KS89; assay type: cell-based, Staphylococcus aureus
Outline: as §1

[23] = test system: MRSA; experiment: Minimum bactericidal concentration against MRSA; assay type: cell-based, Staphylococcus aureus
Procedure: Plates were incubated overnight at 37°C and colony growth was inspected.

[24] = test system: Clostridium difficile AIU ribotype 027; experiment: MIC, plate drop assay, C. difficile AIU ribotype 027; assay type: cell-based; settings: C. difficile AIU ribotype 027
Outline: (§3)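 Twofold dilution series of test compounds were spotted onto C. difficile lawns in 0.4% BHI agar containing added calcium and magnesium salts. After overnight anaerobic incubation at 37°C, growth inhibition was scored by spot clearing; triplicate runs, ultrapure water negative control.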

[25] = test system: E. faecalis VRE 6; experiment: MIC, broth microdilution, vancomycin-resistant E. faecalis VRE 6 (VanA); assay type: cell-based, Enterococcus faecalis
Outline: as §1

[26] = test system: Clostridium difficile ATJ ribotype 014/20; experiment: MIC, plate drop assay, C. difficile ATJ ribotype 014/20; assay type: cell-based; settings: C. difficile ATJ ribotype 014/20
Outline: as §3

[27] = test system: Murine leukemia (L1210) cells; experiment: Cytostatic activity, L1210 cell proliferation; assay type: cell-based; settings: mean ± SD of three experiments; highest concentration tested 250 µM; 2 days; read-out: Toxicity (IC50) L1210
Outline: as §2

## CCCCc1ccc(NC(=O)CNC(=O)[C@H]2NC(=O)[C@H]3NC(=O)[C@H](NC(=O)[C@@H]4NC(=O)[C@H](CC(N)=O)NC(=O)[C@H](NC(=O)[C@@H](CC(C)C)NC)[C@H](O)c5ccc(c(Cl)c5)Oc5cc4cc(c5O[C@@H]4O[C@H](CO)[C@@H](O)[C@H](O)[C@H]4O[C@H]4C[C@](C)(N)[C@H](O)[C@H](C)O4)Oc4ccc(cc4Cl)[C@H]3O)c3ccc(O)c(c3)-c3c(O)cc(O)cc32)cc1 [Vanc-39]
[1]
  MIC: 0.78 µM (≈ 1.28 µg/mL)
[2]; 33 clinical VRE isolates
  MIC Range: 0.78 to 12.5 µM
[2]; in vitro therapeutic index, VRE
  TI (IC50/MIC50): 80
[2]; median MIC, 33 clinical VRE isolates, read-out: MIC50
  MIC50: 3.13 µM (≈ 5.13 µg/mL)
[3]
  MIC: 0.78 µM (≈ 1.28 µg/mL)
[4]; Enterococcus faecalis VSE 1 (vancomycin-sensitive), read-out: MIC
  MIC: 0.20 µM (≈ 0.328 µg/mL)
[4]; VSE 1, ratio of MIC of vancomycin and MIC of analogue
  MIC-fold improvement vs. vancomycin: 8
[5]
  MIC: 0.78 µM (≈ 1.28 µg/mL)
[6]; MRSA KS2, ratio of MIC of vancomycin and MIC of analogue
  MIC-fold improvement vs. vancomycin: 4
[6]; Staphylococcus aureus MRSA KS2, read-out: MIC
  MIC: 0.20 µM (≈ 0.328 µg/mL)
[7]; MRSA KS1, ratio of MIC of vancomycin and MIC of analogue
  MIC-fold improvement vs. vancomycin: 4
[7]; Staphylococcus aureus MRSA KS1, read-out: MIC
  MIC: 0.20 µM (≈ 0.328 µg/mL)
[8]
  MIC: 1.56 µM (≈ 2.55 µg/mL)
[9]; Staphylococcus aureus VISA/HIP5827, read-out: MIC
  MIC: 0.39 µM (≈ 0.639 µg/mL)
[9]; VISA/HIP5827, ratio of MIC of vancomycin and MIC of analogue
  MIC-fold improvement vs. vancomycin: 16
[10]
  MIC: 3.13 µM (≈ 5.13 µg/mL)
[11]; average IC50 used for TI in Table S5, >250 entered as 250, read-out: IC50
  IC50: 250 µM
[11]; average of L1210, CEM and HeLa, read-out: Toxicity (IC50) Average
  IC50: > 250 µM
[11]; summary over the three cell lines, read-out: IC50 (L1210, CEM, HeLa), depending on the cell line used
  IC50: > 250 µM
[12]; MRSA KS6, ratio of MIC of vancomycin and MIC of analogue
  MIC-fold improvement vs. vancomycin: 4
[12]; Staphylococcus aureus MRSA KS6, read-out: MIC
  MIC: 0.20 µM (≈ 0.328 µg/mL)
[13]; Enterococcus faecalis VRE 29 (vancomycin-resistant), read-out: MIC
  MIC: 6.25 µM (≈ 10.2 µg/mL)
[13]; VRE 29, ratio of MIC of vancomycin and MIC of analogue
  MIC-fold improvement vs. vancomycin: 64
[14]; in vitro therapeutic index, MRSA
  TI (IC50/MIC50): 641
[14]; median MIC, 24 clinical MRSA isolates, read-out: MIC50
  MIC50: 0.39 µM (≈ 0.639 µg/mL)
[15]; Enterococcus faecalis VRE 37 (vancomycin-resistant), read-out: MIC
  MIC: 6.25 µM (≈ 10.2 µg/mL)
[15]; VRE 37, ratio of MIC of vancomycin and MIC of analogue
  MIC-fold improvement vs. vancomycin: 64
[16]
  IC50: > 250 µM
[17]
  MIC: 0.78 µM (≈ 1.28 µg/mL)
[18]; Staphylococcus aureus VSSA, read-out: MIC
  MIC: 0.05 µM (≈ 0.0819 µg/mL)
[18]; VSSA, ratio of MIC of vancomycin and MIC of analogue
  MIC-fold improvement vs. vancomycin: 16
[19]; Staphylococcus aureus VRSA, read-out: MIC
  MIC: 0.78 µM (≈ 1.28 µg/mL)
[19]; VRSA, ratio of MIC of vancomycin and MIC of analogue
  MIC-fold improvement vs. vancomycin: 128
[20]; Enterococcus faecalis VRE 53 (vancomycin-resistant), read-out: MIC
  MIC: 50 µM (≈ 81.9 µg/mL)
[20]; VRE 53, ratio of MIC of vancomycin and MIC of analogue
  MIC-fold improvement vs. vancomycin: 8
[21]
  IC50: > 250 µM
[22]; MRSA KS8, ratio of MIC of vancomycin and MIC of analogue
  MIC-fold improvement vs. vancomycin: 4
[22]; Staphylococcus aureus MRSA KS8, read-out: MIC
  MIC: 0.20 µM (≈ 0.328 µg/mL)
[23]
  MBC relative to MIC: MBC equaling their MIC values
[24]
  MIC-fold improvement vs. vancomycin: 14
[25]; Enterococcus faecalis VRE 6 (vancomycin-resistant), read-out: MIC
  MIC: 3.13 µM (≈ 5.13 µg/mL)
[25]; VRE 6, ratio of MIC of vancomycin and MIC of analogue
  MIC-fold improvement vs. vancomycin: 64
[26]
  MIC-fold improvement vs. vancomycin: 22
[27]
  IC50: > 250 µM
